Reference: patent US20230085307A1, “PYRIDAZINONE COMPOUND AND HERBICIDE” (NISSAN CHEMICAL CORPORATION, priority 2019, published 2023)

What was measured:
windgrass [1] = assay: Test Example 5: herbicidal effect by foliage application, plastic box (Table 20, symbol L); format: in vivo, windgrass (Apera spica-venti); conditions: foliage application, 270 g/ha, 3 weeks after application
Outline: (§1)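 Plants sown in sterilized diluvial soil and grown 14 days in a greenhouse at 25° C to 30° C, then sprayed on the foliage with the compound's emulsion diluted in water to a predetermined herbicide amount. Injury to weeds and crops scored three weeks after application on a visual rating scale.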

southern crabgrass [2] = assay: Test Example 5: herbicidal effect by foliage application, plastic box (Table 20, symbol F); format: in vivo, southern crabgrass (Digitaria ciliaris); conditions: foliage application, 270 g/ha, 3 weeks after application
Outline: as §1

blackgrass [3] = assay: Test Example 5: herbicidal effect by foliage application, plastic box (Table 20, symbol J); format: in vivo, blackgrass (Alopecurus myosuroides); conditions: foliage application, 270 g/ha, 3 weeks after application
Outline: as §1

false cleavers = assay: Test Example 5: herbicidal effect by foliage application, plastic box (Table 20, symbol Q); format: in vivo, false cleavers (Galium spurium); conditions: foliage application, 270 g/ha, 3 weeks after application
From the text: [Test Example 5] Herbicidal Effect Test by Foliage Application
Sterilized diluvial soil was placed in a plastic box having a length of 21 cm, a width of 13 cm, and a depth of 7 cm. The seeds of each of southern crabgrass, green foxtail, barnyard grass, wild oat, blackgrass, Italian ryegrass, windgrass, velvetleaf, redroot pigweed, lambsquarters, chickweed, false cleavers, persian speedwell, corn, soybean, rice, wheat, beet, and rapeseed were sowed in a spot-like manner and covered with the soil having a thickness of about 1.5 cm. Thereafter, the plants were grown in a greenhouse at 25° C. to 30° C. After 14-day growth of the plants, the emulsion agent of the compound of the present invention prepared according to Formulation Example 2 was diluted with water so as to achieve a predetermined herbicide amount, and the diluted emulsion agent was uniformly applied to a foliage part with a small-sized spray. Three weeks after the herbicide application, the effect of the herbicide on each plant was evaluated according to the criteria of Test Example 1.

barnyard grass [4] = assay: Test Example 5: herbicidal effect by foliage application, plastic box (Table 20, symbol H); format: in vivo, barnyard grass (Echinochloa crus-galli); conditions: foliage application, 270 g/ha, 3 weeks after application
Outline: as §1

Italian ryegrass [5] = assay: Test Example 5: herbicidal effect by foliage application, plastic box (Table 20, symbol K); format: in vivo, Italian ryegrass (Lolium multiflorum); conditions: foliage application, 270 g/ha, 3 weeks after application
Outline: as §1

lambsquarters [6] = assay: Test Example 5: herbicidal effect by foliage application, plastic box (Table 20, symbol O); format: in vivo, lambsquarters (Chenopodium album); conditions: foliage application, 270 g/ha, 3 weeks after application
Outline: as §1

wild oat [7] = assay: Test Example 5: herbicidal effect by foliage application, plastic box (Table 20, symbol I); format: in vivo, wild oat (Avena fatua); conditions: foliage application, 270 g/ha, 3 weeks after application
Outline: as §1

velvetleaf [8] = assay: Test Example 5: herbicidal effect by foliage application, plastic box (Table 20, symbol M); format: in vivo, velvetleaf (Abutilon theophrasti); conditions: foliage application, 270 g/ha, 3 weeks after application
Outline: as §1

persian speedwell [9] = assay: Test Example 5: herbicidal effect by foliage application, plastic box (Table 20, symbol R); format: in vivo, Persian speedwell (Veronica persica); conditions: foliage application, 270 g/ha, 3 weeks after application
Outline: as §1

green foxtail [10] = assay: Test Example 5: herbicidal effect by foliage application, plastic box (Table 20, symbol G); format: in vivo, green foxtail (Setaria viridis); conditions: foliage application, 270 g/ha, 3 weeks after application
Outline: as §1

Italian ryegrass [11] = assay: Test Example 4: herbicidal effect by soil treatment (Table 19, symbol K); format: in vivo, Italian ryegrass (Lolium multiflorum); conditions: amount of applied herbicide 320 g/ha
Outline: (§2)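 Three weeks of greenhouse growth at 25° C. to 30° C. followed a uniform surface spray of water-diluted emulsion at a predetermined herbicide amount. Seeds had been sown beforehand under about 1.5 cm of sterilized diluvial soil. Grading followed criteria set out in an earlier test.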

Chinese sprangletop = assay: Test Example 3: herbicidal effect by foliage application, Wagner pot (Table 18, symbol D); format: in vivo, chinese sprangletop (Leptochloa chinensis); conditions: amount of applied herbicide 320 g/ha
Outline: (§3)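 Plants were sown in alluvial soil held under 0.1–0.5 cm standing water and grown 14 days in a greenhouse at 25–30 °C. An emulsifiable formulation, water-diluted to the set dose, was then sprayed onto the foliage, and effects were scored three weeks later using previously defined criteria.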

barnyard grass [12] = assay: Test Example 4: herbicidal effect by soil treatment (Table 19, symbol H); format: in vivo, barnyard grass (Echinochloa crus-galli); conditions: amount of applied herbicide 320 g/ha
Outline: as §2

Japanese bulrush [13] = assay: Test Example 1: herbicidal activity, application before weed generation under submerged conditions (Table 16, symbol B); format: in vivo, Japanese bulrush (Schoenoplectus juncoides); conditions: 320 g/ha applied herbicide
Outline: (§4)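 Submerged Wagner pots (alluvial soil, 4 cm water) sown with weed seeds and planted with 2.5-leaf rice seedlings; emulsifiable concentrate diluted in water applied to water surface on sowing day. Held in greenhouse at 25-30 °C; injury scored 0-5 by herbicidal rate after three weeks.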

blackgrass [14] = assay: Test Example 4: herbicidal effect by soil treatment (Table 19, symbol J); format: in vivo, blackgrass (Alopecurus myosuroides); conditions: amount of applied herbicide 320 g/ha
Outline: as §2

southern crabgrass [15] = assay: Test Example 4: herbicidal effect by soil treatment (Table 19, symbol F); format: in vivo, southern crabgrass (Digitaria ciliaris); conditions: amount of applied herbicide 320 g/ha
Outline: as §2

late watergrass [16] = assay: Test Example 1: herbicidal activity, application before weed generation under submerged conditions (Table 16, symbol A); format: in vivo, late watergrass (Echinochloa oryzicola); conditions: 320 g/ha applied herbicide
Outline: as §4

lambsquarters [17] = assay: Test Example 4: herbicidal effect by soil treatment (Table 19, symbol O); format: in vivo, lambsquarters (Chenopodium album); conditions: amount of applied herbicide 320 g/ha
Outline: as §2

late watergrass [18] = assay: Test Example 2: herbicidal activity, application during weed generation under submerged conditions (Table 17, symbol A); format: in vivo, late watergrass (Echinochloa oryzicola); conditions: AAH 320 g/ha; application during weed generation, submerged conditions
Outline: (§5)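 Wagner pot, alluvial soil, 4 cm flood; mixed sowing of all species; greenhouse 25° C.–30° C. Emulsifiable formulation, water-diluted to predetermined dose, applied to paddy water at 1–2 leaf stage. Effect rated at 3 wk using the earlier test's scoring criteria.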

green foxtail [19] = assay: Test Example 4: herbicidal effect by soil treatment (Table 19, symbol G); format: in vivo, green foxtail (Setaria viridis); conditions: amount of applied herbicide 320 g/ha
Outline: as §2

wild oat [20] = assay: Test Example 4: herbicidal effect by soil treatment (Table 19, symbol I); format: in vivo, wild oat (Avena fatua); conditions: amount of applied herbicide 320 g/ha
Outline: as §2

barnyard grass [21] = assay: Test Example 3: herbicidal effect by foliage application, Wagner pot (Table 18, symbol H); format: in vivo, barnyard grass (Echinochloa crus-galli); conditions: amount of applied herbicide 320 g/ha
Outline: as §3

oval-leafed pondweed [22] = assay: Test Example 1: herbicidal activity, application before weed generation under submerged conditions (Table 16, symbol C); format: in vivo, oval-leafed pondweed (Monochoria vaginalis); conditions: 320 g/ha applied herbicide
Outline: as §4

windgrass [23] = assay: Test Example 4: herbicidal effect by soil treatment (Table 19, symbol L); format: in vivo, windgrass (Apera spica-venti); conditions: amount of applied herbicide 320 g/ha
Outline: as §2

velvetleaf [24] = assay: Test Example 4: herbicidal effect by soil treatment (Table 19, symbol M); format: in vivo, velvetleaf (Abutilon theophrasti); conditions: amount of applied herbicide 320 g/ha
Outline: as §2

chickweed = assay: Test Example 4: herbicidal effect by soil treatment (Table 19, symbol P); format: in vivo, common chickweed (Stellaria media); conditions: amount of applied herbicide 320 g/ha
Outline: as §2

redroot pigweed = assay: Test Example 4: herbicidal effect by soil treatment (Table 19, symbol N); format: in vivo, redroot pigweed (Amaranthus retroflexus); conditions: amount of applied herbicide 320 g/ha
Outline: as §2

persian speedwell [25] = assay: Test Example 4: herbicidal effect by soil treatment (Table 19, symbol R); format: in vivo, Persian speedwell (Veronica persica); conditions: amount of applied herbicide 320 g/ha
Outline: as §2

oval-leafed pondweed [26] = assay: Test Example 2: herbicidal activity, application during weed generation under submerged conditions (Table 17, symbol C); format: in vivo, oval-leafed pondweed (Monochoria vaginalis); conditions: AAH 320 g/ha; application during weed generation, submerged conditions
Outline: as §5

Japanese bulrush [27] = assay: Test Example 2: herbicidal activity, application during weed generation under submerged conditions (Table 17, symbol B); format: in vivo, Japanese bulrush (Schoenoplectus juncoides); conditions: AAH 320 g/ha; application during weed generation, submerged conditions
Outline: as §5

rice flat sedge = assay: Test Example 3: herbicidal effect by foliage application, Wagner pot (Table 18, symbol E); format: in vivo, rice flat sedge (Cyperus iria); conditions: amount of applied herbicide 320 g/ha
Outline: as §3

COCCOCOc1c(C)nn(C)c(=O)c1-c1c(-c2ccc(OCC(=O)OC)cc2)sc2ccccc12 [1-233]
effect on windgrass (L) (windgrass [1]): 0 (Herbicidal rate of 5% or less (almost no effect)) | effect on southern crabgrass (F) (southern crabgrass [2]): 0 (Herbicidal rate of 5% or less (almost no effect)) | effect on blackgrass (J) (blackgrass [3]): 0 (Herbicidal rate of 5% or less (almost no effect)) | effect on false cleavers (Q) (false cleavers): 0 (Herbicidal rate of 5% or less (almost no effect)) | effect on barnyard grass (H) (barnyard grass [4]): 0 (Herbicidal rate of 5% or less (almost no effect)) | effect on Italian ryegrass (K) (Italian ryegrass [5]): 0 (Herbicidal rate of 5% or less (almost no effect)) | effect on lambsquarters (O) (lambsquarters [6]): 2 (Herbicidal rate of 20% or more and less than 40%) | effect on wild oat (I) (wild oat [7]): 0 (Herbicidal rate of 5% or less (almost no effect)) | effect on velvetleaf (M) (velvetleaf [8]): 0 (Herbicidal rate of 5% or less (almost no effect)) | effect on persian speedwell (R) (persian speedwell [9]): 0 (Herbicidal rate of 5% or less (almost no effect)) | effect on green foxtail (G) (green foxtail [10]): 0 (Herbicidal rate of 5% or less (almost no effect))

CCCC(=O)Oc1c(C)nn(C)c(=O)c1-c1c(-c2ccc(Cl)c(F)c2)sc2ccc(F)cc12 [2-351]
herbicidal effect on K: Italian ryegrass (Italian ryegrass [11]): 0 (Herbicidal rate of 5% or less (almost no effect)) | herbicidal effect on D: Chinese sprangletop (Chinese sprangletop): 5 (Herbicidal rate of 90% or more (almost completely withered)) | herbicidal effect on H: barnyard grass (barnyard grass [12]): 0 (Herbicidal rate of 5% or less (almost no effect)) | Herbicidal effect on B: Japanese bulrush (grade 0-5) (Japanese bulrush [13]): 3 (Herbicidal rate of 40% or more and less than 70%) | herbicidal effect on J: blackgrass (blackgrass [14]): 0 (Herbicidal rate of 5% or less (almost no effect)) | herbicidal effect on F: southern crabgrass (southern crabgrass [15]): 0 (Herbicidal rate of 5% or less (almost no effect)) | Herbicidal effect on A: late watergrass (grade 0-5) (late watergrass [16]): 5 (Herbicidal rate of 90% or more (almost completely withered)) | herbicidal effect on O: lambsquarters (lambsquarters [17]): 3 (Herbicidal rate of 40% or more and less than 70%) | herbicidal effect rating, A: late watergrass (late watergrass [18]): 3 (Herbicidal rate of 40% or more and less than 70%) | herbicidal effect on G: green foxtail (green foxtail [19]): 0 (Herbicidal rate of 5% or less (almost no effect)) | herbicidal effect on I: wild oat (wild oat [20]): 0 (Herbicidal rate of 5% or less (almost no effect)) | herbicidal effect on H: barnyard grass (barnyard grass [21]): 5 (Herbicidal rate of 90% or more (almost completely withered)) | Herbicidal effect on C: oval-leafed pondweed (grade 0-5) (oval-leafed pondweed [22]): 3 (Herbicidal rate of 40% or more and less than 70%) | herbicidal effect on L: windgrass (windgrass [23]): 0 (Herbicidal rate of 5% or less (almost no effect)) | herbicidal effect on M: velvetleaf (velvetleaf [24]): 0 (Herbicidal rate of 5% or less (almost no effect)) | herbicidal effect on P: chickweed (chickweed): 1 (Herbicidal rate of 5% or more and less than 20%) | herbicidal effect on N: redroot pigweed (redroot pigweed): 3 (Herbicidal rate of 40% or more and less than 70%) | herbicidal effect on R: persian speedwell (persian speedwell [25]): 3 (Herbicidal rate of 40% or more and less than 70%) | herbicidal effect rating, C: oval-leafed pondweed (oval-leafed pondweed [26]): 4 (Herbicidal rate of 70% or more and less than 90%) | herbicidal effect rating, B: Japanese bulrush (Japanese bulrush [27]): 3 (Herbicidal rate of 40% or more and less than 70%) | herbicidal effect on E: rice flat sedge (rice flat sedge): 4 (Herbicidal rate of 70% or more and less than 90%)
